Patent US9624182B2, “Compounds as lysophosphatidic acid receptor antagonists” (Amira Pharmaceuticals, Inc., priority 2009, dated 2017)

biological target: T1, human LPA1 (Homo sapiens, UniProt Q92633); experiment: LPA1 calcium flux assay; type: cell-based; conditions: CHO cells expressing human LPA1, stimulated with 10 nM LPA; read-out: HLPA1 Ca Flux IC50
T1 construct: the full-length cDNA for human LPA1 was obtained by PCR of the reverse transcription reaction; expressed in transfected cells
Protocol: A 1.1 kb cDNA encoding the human LPA1 receptor was cloned from human lung. Human lung RNA (Clontech Laboratories, Inc. USA) was reverse transcribed using the RETROscript kit (Ambion, Inc.) and the full-length cDNA for human LPA1 was obtained by PCR of the reverse transcription reaction. The nucleotide sequence of the cloned human LPA1 was determined by sequencing and confirmed to be identical to the published human LPA1 sequence (An et al. Biochenm. Biophys. Res. Commun. 231:619 (1997). The cDNA was cloned into the pCDNA5/FRT expression plasmid and transfected in CHO cells using lipofectamine 2000 (Invitrogen Corp., USA). Clones stably expressing human LPA1 were selected using hygromycin and identified as cells that show Ca-influx in response to LPA.
Human LPA1 or LPA3 expressing CHO cells are seeded at 20,000-45,000 cells per well in a 96-well poly-D-lysine coated plate one or two days before the assay. Prior to the assay, the cells are washed once with PBS and then cultured in serum-free media overnight. On the day of the assay, a calcium indicator dye (Calcium 4, Molecular Devices) in assay buffer (HBSS with Ca^2+ and Mg^2+ and containing 20 mM Hepes and 0.3% fatty-acid free human serum albumin) is added to each well and incubation continued for 1 hour at 37° C. 10 μl of test compounds in 2.5% DMSO are added to the cells and incubation continued at room temperature for 30 minutes. Cells are the stimulated by the addition of 10 nM LPA and intracellular Ca^2+ measured using the Flexstation 3 (Molecular Devices). IC50s are determined using Graphpad prism analysis of drug titration curves.

T1 sequence (Q92633 whole entry): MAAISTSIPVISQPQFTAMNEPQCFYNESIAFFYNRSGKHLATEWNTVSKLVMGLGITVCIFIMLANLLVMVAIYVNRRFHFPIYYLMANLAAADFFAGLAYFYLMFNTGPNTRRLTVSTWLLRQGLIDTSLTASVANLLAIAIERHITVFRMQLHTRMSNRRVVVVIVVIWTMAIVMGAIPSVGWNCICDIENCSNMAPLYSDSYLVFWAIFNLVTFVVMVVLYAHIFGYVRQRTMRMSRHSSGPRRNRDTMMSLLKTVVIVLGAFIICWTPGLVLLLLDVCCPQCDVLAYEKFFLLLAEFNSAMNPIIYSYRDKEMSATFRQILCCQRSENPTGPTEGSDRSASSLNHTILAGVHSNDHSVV

IC50 | SMILES
< 0.3 µM | Cc1noc(-c2ccc(-c3ccc(C4(C(=O)O)CC4)cc3)cc2)c1CCOCC1CC1 [Compound 1-35, 1-{4′-[4-(2-Cyclopropylmethoxy-ethyl)-3-methyl-isoxazol-5-yl]-biphenyl-4-yl}-cyclopropanecarboxylic acid]
1 to 50 µM | Cc1noc(-c2ccc(-c3ccc(C4(C(=O)O)CC4)cc3)cc2)c1CCNC(=O)c1ccccc1 [Compound 1-36, 1-{4′-[4-(2-Benzoylamino-ethyl)-3-methyl-isoxazol-5-yl]-biphenyl-4-yl}-cyclopropanecarboxylic acid]
1 to 50 µM | Cc1noc(-c2ccc(-c3ccc(C4(C(=O)O)CC4)cc3)cc2)c1CCN(Cc1ccccc1)Cc1ccccc1 [Compound 1-37, 1-{4′-[4-(2-Dibenzylamino-ethyl)-3-methyl-isoxazol-5-yl]-biphenyl-4-yl}-cyclopropanecarboxylic acid]
1 to 50 µM | Cc1noc(-c2ccc(-c3ccc(C4(C(=O)O)CC4)cc3)cc2)c1C(=O)NCCc1ccccc1 [Compound 1-38, 1-[4′-(3-Methyl-4-phenethylcarbamoyl-isoxazol-5-yl)-biphenyl-4-yl]-cyclopropanecarboxylic acid]
1 to 50 µM | Cc1noc(-c2ccc(-c3ccc(C4(C(=O)O)CC4)cc3)cc2)c1CCC(=O)NC1CC1 [Compound 1-39, 1-{4′-[4-(2-Cyclopropylcarbamoyl-ethyl)-3-methyl-isoxazol-5-yl]-biphenyl-4-yl}-cyclopropanecarboxylic acid]
1 to 50 µM | Cc1noc(-c2ccc(-c3ccc(C4(C(=O)O)CC4)cc3)cc2)c1CCC(=O)NCC1CC1 [Compound 1-40, 1-(4′-{4-[2-(Cyclopropylmethyl-carbamoyl)-ethyl]-3-methyl-isoxazol-5-yl}-biphenyl-4-yl)-cyclopropanecarboxylic acid]
1 to 50 µM | Cc1noc(-c2ccc(-c3ccc(C4(C(=O)O)CC4)cc3)cc2)c1CCC(=O)N1CCCC1 [Compound 1-41, 1-{4′-[3-Methyl-4-(3-oxo-3-pyrrolidin-1-yl-propyl)-isoxazol-5-yl]-biphenyl-4-yl}-cyclopropanecarboxylic acid]
1 to 50 µM | Cc1noc(-c2ccc(-c3ccc(C4(C(=O)O)CC4)cc3)cc2)c1CCC(=O)NCc1ccccc1 [Compound 1-42, 1-{4′-[4-(2-Benzylcarbamoyl-ethyl)-3-methyl-isoxazol-5-yl]-biphenyl-4-yl}-cyclopropanecarboxylic acid]
> 50 µM | Cc1noc(-c2ccc(-c3ccc(C4(C(=O)O)CC4)cc3)cc2)c1CCC(=O)Nc1ccccc1 [Compound 1-43, 1-{4′-[3-Methyl-4-(2-phenylcarbamoyl-ethyl)-isoxazol-5-yl]-biphenyl-4-yl}-cyclopropanecarboxylic acid]
< 0.3 µM | Cc1noc(-c2ccc(-c3ccc(C4(C(=O)O)CC4)cc3)cc2)c1CCC(=O)N(C)Cc1ccccc1F [Compound 1-44, 1-[4′-(4-{2-[(2-Fluoro-benzyl)-methyl-carbamoyl]-ethyl}-3-methyl-isoxazol-5-yl)-biphenyl-4-yl]-cyclopropanecarboxylic acid]
1 to 50 µM | Cc1noc(-c2ccc(-c3ccc(C4(C(=O)O)CC4)cc3)cc2)c1COCc1ccccc1 [Compound 1-45, 1-[4′-(4-Benzyloxymethyl-3-methyl-isoxazol-5-yl)-biphenyl-4-yl]-cyclopropanecarboxylic acid]
1 to 50 µM | Cc1noc(-c2ccc(-c3ccc(C4(C(=O)O)CC4)cc3)cc2)c1COCc1ccccc1Cl [Compound 1-46, 1-{4′-[4-(2-Chloro-benzyloxymethyl)-3-methyl-isoxazol-5-yl]-biphenyl-4-yl}-cyclopropanecarboxylic acid]
1 to 50 µM | Cc1noc(-c2ccc(-c3ccc(C4(C(=O)O)CC4)cc3)cc2)c1COC(C)c1ccccc1 (centres unmarked) [Compound 1-47, 1-{4′-[3-Methyl-4-(1-phenyl-ethoxymethyl)-isoxazol-5-yl]-biphenyl-4-yl}-cyclopropanecarboxylic acid]
1 to 50 µM | Cc1noc(-c2ccc(-c3ccc(C4(C(=O)O)CC4)cc3)cc2)c1CSCc1ccccc1 [Compound 1-50, 1-[4′-(4-Benzylsulfanylmethyl-3-methyl-isoxazol-5-yl)-biphenyl-4-yl]-cyclopropanecarboxylic acid]
> 50 µM | Cc1noc(-c2ccc(-c3ccc(C4(C(=O)O)CC4)cc3)cc2)c1C[S+]([O-])Cc1ccccc1 (centres unmarked) [Compound 1-52, 1-[4′-(3-Methyl-4-phenylmethanesulfinylmethyl-isoxazol-5-yl)-biphenyl-4-yl]-cyclopropanecarboxylic acid]
1 to 50 µM | Cc1noc(-c2ccc(-c3ccc(C4(C(=O)O)CC4)cc3)cc2)c1CS(=O)(=O)Cc1ccccc1 [Compound 1-53, 1-[4′-(3-Methyl-4-phenylmethanesulfonylmethyl-isoxazol-5-yl)-biphenyl-4-yl]-cyclopropanecarboxylic acid]
< 0.3 µM | Cc1noc(-c2ccc(-c3ccc(C4(C(=O)O)CC4)cc3)cc2)c1C[S+]([O-])CCc1ccccc1 (centres unmarked) [Compound 1-54, 1-{4′-[3-Methyl-4-(2-phenyl-ethanesulfinylmethyl)-isoxazol-5-yl]-biphenyl-4-yl}-cyclopropanecarboxylic acid]
< 0.3 µM | Cc1noc(-c2ccc(-c3ccc(C4(C(=O)O)CC4)cc3)cc2)c1CS(=O)(=O)CCc1ccccc1 [Compound 1-55, 1-{4′-[3-Methyl-4-(2-phenyl-ethanesulfonylmethyl)-isoxazol-5-yl]-biphenyl-4-yl}-cyclopropanecarboxylic acid]
< 0.3 µM | Cc1noc(-c2ccc(-c3ccc(C4(C(=O)O)CC4)cc3)cc2)c1CNC(=O)OCc1ccccc1 [Compound 1-57, 1-{4′-[4-(Benzyloxycarbonylamino-methyl)-3-methyl-isoxazol-5-yl]-biphenyl-4-yl}-cyclopropanecarboxylic acid]
< 0.3 µM | Cc1noc(-c2ccc(-c3ccc(C4(C(=O)O)CC4)cc3)cc2)c1CNC(=O)Cc1ccccc1 [Compound 1-58, 1-{4′-[3-Methyl-4-(phenylacetylamino-methyl)-isoxazol-5-yl]-biphenyl-4-yl}-cyclopropanecarboxylic acid]
1 to 50 µM | Cc1noc(-c2ccc(-c3ccc(C4(C(=O)O)CC4)cc3)cc2)c1CNC(=O)NCc1ccccc1 [Compound 1-59, 1-{4′-[4-(3-Benzyl-ureidomethyl)-3-methyl-isoxazol-5-yl]-biphenyl-4-yl}-cyclopropanecarboxylic acid]
1 to 50 µM | Cc1noc(-c2ccc(-c3ccc(C4(C(=O)O)CC4)cc3)cc2)c1CNC(=O)CCc1ccccc1 [Compound 1-60, 1-(4′-{3-Methyl-4-[(3-phenyl-propionylamino)-methyl]-isoxazol-5-yl}-biphenyl-4-yl)-cyclopropanecarboxylic acid]
1 to 50 µM | Cc1noc(-c2ccc(-c3ccc(C4(C(=O)O)CC4)cc3)cc2)c1CNS(=O)(=O)Cc1ccccc1Cl [Compound 1-61, 1-(4′-{4-[(2-Chloro-phenylmethanesulfonylamino)-methyl]-3-methyl-isoxazol-5-yl}-biphenyl-4-yl)-cyclopropanecarboxylic acid]
1 to 50 µM | Cc1noc(-c2ccc(-c3ccccc3C3(C(=O)O)CC3)cc2)c1/C=C\CCc1ccccc1 [Compound 1-62, 1-{4′-[3-Methyl-4-((Z)-4-phenyl-but-1-enyl)-isoxazol-5-yl]-biphenyl-2-yl}-cyclopropanecarboxylic acid]
1 to 50 µM | Cc1noc(-c2ccc(-c3ccccc3C3(C(=O)O)CC3)cc2)c1/C=C/CCc1ccccc1 [Compound 1-63, 1-{4′-[3-Methyl-4-((E)-4-phenyl-but-1-enyl)-isoxazol-5-yl]-biphenyl-2-yl}-cyclopropanecarboxylic acid]
< 0.3 µM | Cc1noc(-c2ccc(-c3ccc(C4(C(=O)O)CC4)cc3)cc2)c1CNC(=O)C1(c2ccccc2)CC1 [Compound 1-64, 1-[4′-(3-Methyl-4-{[(1-phenyl-cyclopropanecarbonyl)-amino]-methyl}-isoxazol-5-yl)-biphenyl-4-yl]-cyclopropanecarboxylic acid]
> 50 µM | Cc1noc(-c2ccc(-c3ccc(C4(C(=O)O)CC4)cc3)cc2)c1CC(=O)N[C@@H]1CCc2ccccc21 [Compound 1-65, 1-{4′-[4-(Indan-1-ylcarbamoylmethyl)-3-methyl-isoxazol-5-yl]-biphenyl-4-yl}-cyclopropanecarboxylic acid]
> 50 µM | Cc1noc(-c2ccc(-c3ccc(C4(C(=O)O)CC4)cc3)cc2)c1CC(=O)N1Cc2ccccc2C1 [Compound 1-66, 1-(4′-{4-[2-(1,3-Dihydro-isoindol-2-yl)-2-oxo-ethyl]-3-methyl-isoxazol-5-yl}-biphenyl-4-yl)-cyclopropanecarboxylic acid]
< 0.3 µM | Cc1noc(-c2ccc(-c3ccc(C4(C(=O)O)CC4)cc3)cc2)c1CN(C)CCc1ccccc1 [Compound 1-67, 1-(4′-{3-Methyl-4-[(methyl-phenethyl-amino)-methyl]-isoxazol-5-yl}-biphenyl-4-yl)-cyclopropanecarboxylic acid]
